From PubChem BioAssay (NCI) come the findings set out here.

Common to all, as to test: growth of human tumour cells (NCI), 48 h
The test system of experiment [1] is CAKI-1 renal.
The subject of experiment [2] is OVCAR-4 ovarian.
Experiment [3] deals with RXF 393 renal.
Experiment [4] concerns SNB-75 CNS.
The test system of experiment [5] is HT29 colon.
For experiment [6], the system named is MOLT-4 leukemia.
For experiment [7], the system named is SF-268 CNS.
The test system of experiment [8] is SK-MEL-28 melanoma.
Experiment [9] relates to MCF7 breast.
For experiment [10], the system named is MDA-MB-231 breast.

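Tested at 5 concentrations; 48 h exposure; 96-well plates; endpoints linearly interpolated, else capped at highest concentration. GI50: concentration for 50% inhibition of growth. TGI is the concentration that stops growth completely.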

For `COc1ccc(C2c3ccc4ccccc4c3Oc3ncn(CCCn4ccnc4)c(=N)c32)cc1OC` (centres undefined), the GI50 in experiment [1] is 4.84 µM; in experiment [2] it was 9.65 µM; in [3] it was 1.78 µM; in [4], 2.12 µM; in experiment [5], 2.2 µM; in [6] it was 2.59 µM. The GI50 in experiment [7] was 3.52 µM; in experiment [8], 1.79 µM; in [9], 3.11 µM; in [10] it was 2.44 µM. Also, the TGI in experiment [1] amounted to 17.8 µM; in experiment [2], 26.4 µM; in experiment [3], 4.64 µM; in experiment [4], 8.13 µM; in experiment [5], 5.6 µM; in experiment [6] it was 6.25 µM. The TGI was 13.8 µM in [7], 3.5 µM in [8], 12.3 µM in [9] and 8.01 µM in [10].

Take `CCOc1ccccc1/C=N\N=C(N/N=C/c1ccccc1OCC)N/N=C/c1ccccc1OCC`: the GI50 in experiment [1] is 1.4 µM; in [2], 1.17 µM; in [3], 2.67 µM; in experiment [4] it was 2.2 µM; in experiment [5], 2.23 µM; in [6], 4.69 µM. Besides, the GI50 in [7] was 1.62 µM; in experiment [8], 4.38 µM; in experiment [9], 0.715 µM; in [10], 1.73 µM. Further, the TGI in experiment [1], in [2], in experiment [3], in experiment [4], in experiment [5] and in experiment [6] was above 100 µM each time. Moreover, the TGI in experiment [7] was above 100 µM; in experiment [8], above 100 µM; in [9], above 100 µM; in experiment [10], 7.52 µM.

`CCOC(=O)c1c(NN2CCN(CC(F)(F)F)CC2)oc(/C=C2\C=Nc3ncccc32)c1O`: the GI50 is 1.08 µM in [1]; 6.17 µM in [2]; 1.2 µM in experiment [3]; 0.325 µM in [4]; 2.47 µM in experiment [5]; 2.79 µM in experiment [6]. For the same molecule, the GI50 was 3.04 µM in [7], 11 µM in experiment [8], 6.37 µM in experiment [9] and 6.72 µM in [10]. Also, the TGI was found to be 13.5 µM in experiment [1]; 26.4 µM in experiment [2]; 4.19 µM in experiment [3]; 11.6 µM in experiment [4]; 17.1 µM in [5]; 9.37 µM in [6]. Further, the TGI came to 16.1 µM in experiment [7], 29.9 µM in [8], 30.5 µM in [9] and 32.4 µM in experiment [10].

`CCNCC(=O)Nc1ccc2c(c1)C(=O)c1ccc(NC(=O)CNCC)cc1C2=O`: the TGI in experiment [1] was 29.6 µM; in experiment [2], 2.24 µM; in experiment [3], 13.3 µM; in experiment [4], 7.44 µM; in experiment [5], 9.87 µM; in experiment [7] it was 16.6 µM. Further, the TGI came out at 19.2 µM in experiment [8], 5.6 µM in experiment [9] and 9.88 µM in experiment [10].

`N#Cc1c(N)nc2c(c1-c1ccc(Cl)cc1)COc1ccc(F)cc1-2`: the GI50 in experiment [1] is 25.2 µM; in experiment [2], 34.7 µM; in experiment [3], 20.3 µM; in experiment [4] it was above 100 µM; in experiment [5] it was 39.4 µM; in experiment [6], 22.2 µM. Besides, the GI50 in experiment [7] is 37.1 µM; in experiment [9], 17.9 µM; in experiment [10], 11.9 µM. The TGI in experiment [1] is 66.3 µM; in experiment [2], above 100 µM; in [3] it was above 100 µM; in experiment [4], above 100 µM; in experiment [5] it was above 100 µM; in [6], 44.6 µM. For the same molecule, the TGI in experiment [7] is above 100 µM; in [9] it was above 100 µM; in experiment [10], 51.8 µM.

Take `CCOc1ccc(-c2nc3ccc(-c4nc5ccc(N6CCN(C)CC6)cc5[nH]4)cc3[nH]2)cc1`: the GI50 in [1] was 0.555 µM; in [2], 0.219 µM; in experiment [4], 0.131 µM; in experiment [6] it was 0.299 µM; in experiment [7] it was 0.361 µM; in experiment [8], 0.77 µM. The GI50 in experiment [9] was 0.0328 µM; in experiment [10], 1.25 µM. Moreover, the TGI in experiment [1] came out at 2.55 µM; in experiment [2] it was 0.838 µM; in [4], 0.354 µM; in experiment [6], 1.81 µM; in [7], 1.67 µM; in [8] it was 2.13 µM. For the same molecule, the TGI in [9] was 0.38 µM; in [10] it was 2.6 µM.

As to `Clc1cc(Br)ccc1-c1ccc(CNCC2CCNCC2)o1`, the GI50 in experiment [1] is 1.85 µM; in experiment [2] it was 1.86 µM; in experiment [4], 1.26 µM; in [5], 1.44 µM; in experiment [6] it was 1.7 µM; in [7], 1.57 µM. Besides, the GI50 in [8] is 1.89 µM; in [9], 1.74 µM; in experiment [10], 1.59 µM. The TGI came out at 3.58 µM in [1]; 4.49 µM in experiment [2]; 2.88 µM in [4]; 3.11 µM in experiment [5]; 3.57 µM in experiment [6]; 3.04 µM in experiment [7]. In addition, the TGI came out at 3.42 µM in experiment [8], 3.35 µM in experiment [9] and 3.42 µM in [10].

As for `c1cc(OCCN2CCCC2)ccc1CNc1ccc2nc(CCC3CCCCC3)[nH]c2c1`, the GI50 is 1.79 µM in [1]; 2.64 µM in [2]; 1.32 µM in [3]; 1.27 µM in [4]; 0.535 µM in [5]; 1.76 µM in experiment [6]. The GI50 in [7] is 1.82 µM; in experiment [9] it was 1.63 µM; in experiment [10], 1.61 µM. The TGI in [1] stood at 3.38 µM; in experiment [2], 12.7 µM; in experiment [3], 3.23 µM; in experiment [4], 3.31 µM; in [5], 2.23 µM; in experiment [6], 5.81 µM. Also, the TGI is 4.38 µM in experiment [7], 4.66 µM in experiment [9] and 3.19 µM in [10].
